# From patent US20190010524A1, “BIOLOGICAL METHODS FOR PREPARING A FATTY DICARBOXYLIC ACID” (Verdezyne, Inc., priority 2012, published 2019)
# Columns and labels:
# [1] = test system: Candida strain ATTC 20962; test: Shake flask bioconversion of feedstocks of varying chain length (Example 72); format: cell-based; conditions: ethyl esters 1% v/v, alkanes 3% v/v
# Description: (§1) The bioconversion tests in this Example were undertaken following a shake flask protocol. […] The YPD contained 10 g/L yeast extract, 20 g/L peptone, and 20 g/L dextrose. These cultures were then placed in a 30° C. shaking incubator at 250 rpm for 18 to 20 hours.
# (§2) After this growth phase, these cultures were used to inoculate 350 ml of SP92-glycerol media dispensed into 10-250 ml wide mouth flasks in 35 ml aliquots for each strain. The SP92-glycerol media contained 6.7 g/L yeast nitrogen base, 3 g/L yeast extract, 3 g/L ammonium sulfate, 1 g/L potassium phosphate monobasic; 1 g/L potassium phosphate, dibasic, and 75 g/L glycerol (Picataggio S., et al., Biotechnology (NY) 1992 August; 10 (8):894-8). The cultures were then placed in a 30° C. shaking incubator at 300 rpm for 20 to 24 hours.
# (§3) The cells were then centrifuged for 5 minutes at 3000 rpm and the supernatant discarded. The cells were resuspended in DCA3 medium supplemented with 1.0% triton-X100. DCA3 is a 0.3 M potassium phosphate buffer, pH 7.5 containing 6.7 g/L yeast nitrogen base and 50 g/L glycerol. Variations of DCA3 media recipes are known, non-limiting examples of which include the addition of dextrose and/or glycerol, the like or combinations thereof. DCA3 media, as referred to herein, can include dextrose and/or glycerol. After re-suspension, the OD600 nm for each culture was adjusted to a common OD (based on the available OD for the strain with the least growth) and 10 ml was transferred to pre-weighed 250 ml bottom baffled shake flasks. The flasks were then reweighed to determine the starting weight of the culture. The substrate to be converted was then added at 1% v/v for ethyl esters and 3% v/v for alkanes. The increased amount of alkanes added was due to their volatility to ensure that sufficient substrate remained in solution for bioconversion. The flasks were weighed once more to determine the exact amount of substrate added to each flask and were then placed, in a 30° C. shaking incubator at 300 rpm for 4 hours. Bioconversion tests for ethyl-stearate and ethyl palmitate were performed at 35° C. due to melting point limitations for these substrates.
# (§4) After 48 hours, the flasks were weighed once more to determine the weight of the final culture. The cultures were mixed well by swirling and 1 ml was transferred to a pre-weighed 15 ml falcon tube containing 0.8 ml of 6N HCl. The tube was weighed to determine the density of the final culture and this number used to determine the culture volume present at the final time point. Samples were submitted to analytical for analysis by GC.
# sAA1082 = test: as above; format: cell-based, Candida; conditions: for Feedstock Yield (g diacid/g added feedstock) sAA-1082: shake flask, ethyl esters 1% v/v, alkanes 3% v/v
# Description: as §1, §2, §3, §4
# sAA2178 = test: as above; format: cell-based, Candida; conditions: for Feedstock Yield (g diacid/g added feedstock) sAA-2178: shake flask, ethyl esters 1% v/v, alkanes 3% v/v
# Description: as §1, §2, §3, §4
# strain sAA1082 = test: Production of DDDA from ethyl laurate or methyl laurate feedstock (Example 67); format: cell-based, Candida
# Description: Methyl laurate feed rates varied as follows: 0.75 g/L-h for the first 24 h; 1.2 g/L-h from 24 h to termination. Ethyl laurate was fed at a rate of 0.75 gL-h for the first 24 h; 1.28 g/L-h from 24 h to termination. […] Also at induction a co-feed of dextrose was fed at a rate of either 1.25 g/L-h or 0.9 g/L-h. In TABLE 35, data from these two ethyl laurate fermentations were compared to similar data obtained from methyl laurate fermentations run under the same conditions.
# strain sAA2178 [2] = test: Production of DDDA using sucrose or dextrose as co-feed (Example 68); format: cell-based, Candida; conditions: co-feed 0.9 g/L-h; for production of DDDA: ethyl laurate feed, three fermentations averaged
# Description: A pre-culture of 80 mL SP92 in a 500 mL baffled flask with foam plugs was inoculated with 1.0 mL from a frozen glycerol stock of strain sAA2178 (beta-oxidation blocked strains plus amplified CPRB, CYP52A19, ADH2a, ADH8, and HFD2) and incubated for 24 h at 30° C. and 250 RPM. […] Growth was initiated an inoculum of pre-culture to an initial OD600nm=1.0 and growth conditions of 35° C., 1000 rpm, 1 vvm, pH 5.8. Growth continued for approximately 10-12 h at which point the conversion phase was initiated by a continuous feed of ethyl laurate. […] The data from three fermentations were averaged for the comparison.
# [3] = test system: Candida tropicalis strain (sAA496); test: Fermentation of coconut oil to mixed diacids at different pH; format: cell-based; conditions: coconut oil 80 g/L, 140 hours
# Description: Autoclaved virgin coconut oil was added to the vessel to a final concentration of 80 g/L. A partially beta-oxidation blocked Candida tropicalis strain (sAA496) was inoculated to an initial OD600nm of 1.0 with a 5% inoculum and grown under the following conditions: 30° C. with shaking at about 1200 rpm, 1 vvm, initial pH 6.5 and initial volume of 1.0 L. The effect of pH on the distribution of fatty acid chain lengths was determined by manipulating the pH of the fermentation media. The pH of the fermentation was either 1) increased to pH 7.5 and controlled at that pH for the entire run, 2) allowed to drop-naturally due to the growth of the culture before controlling at pH 6.0 for the rest of the run; or 3) allowed to drop naturally due to the growth of the culture before controlling at pH 4.5 for the rest of the run. Samples were collected for GC analysis after 140 hours of fermentation time.
# strain sAA2178 [4] = test: Production of DDDA with glycerol or xylose substituted for dextrose as co-feed (Example 69); format: cell-based, Candida; conditions: co-feed 1.25 g/L-h; for production of DDDA: ethyl laurate feed
# Description: A pre-culture of 80 mL SP92 in a 500 mL baffled flask with foam plugs was inoculated with 1.0 mL from a frozen glycerol stock of strain sAA2178 (beta-oxidation blocked strains plus amplified CPRB, CYP52A19, ADH2a, ADH8, and HFD2) and incubated for 24 h at 30° C. and 250 RPM. […] Growth was initiated with an inoculum of pre-culture to an/initial OD600nm=1.0 and growth conditions of 35° C., 1000 rpm, 1 vvm; pH 5.8. Growth continued for approximately 10-12 h at which point the conversion phase was initiated by a continuous feed of ethyl laurate. Ethyl laurate was fed at a rate of 0.75 g/L-h for the first 24 h; 1.28 g/L-h from 24 h to termination. In addition, a co-feed of either dextrose, glycerol or xylose was fed at a rate of 1.25 g/L-h for all fermentations.
# [5] = dextrose co-feed rate 0.9 g/L-h
# [6] = dextrose co-feed rate 1.25 g/L-h
compound,measurement,setting,value
CCCCCCCCCCCCCCCC(=O)OCC [Ethyl palmitate],Feedstock Yield (g diacid/g added feedstock) ATTC-20962,[1],0.059 g diacid/g added feedstock
same,% improvement over ATTC 20962 sAA-1082,sAA1082,41.8%
same,Feedstock Yield (g diacid/g added feedstock) sAA-1082,sAA1082,0.084 g diacid/g added feedstock
same,% improvement over ATTC 20962 sAA-2178,sAA2178,51.2%
same,Feedstock Yield (g diacid/g added feedstock) sAA-2178,sAA2178,0.090 g diacid/g added feedstock
CCCCCCCCCCCCC [n-Tridecane],Feedstock Yield (g diacid/g added feedstock) ATTC-20962,[1],0.680 g diacid/g added feedstock
same,% improvement over ATTC 20962 sAA-1082,sAA1082,38.3%
same,Feedstock Yield (g diacid/g added feedstock) sAA-1082,sAA1082,0.941 g diacid/g added feedstock
same,% improvement over ATTC 20962 sAA-2178,sAA2178,27.7%
same,Feedstock Yield (g diacid/g added feedstock) sAA-2178,sAA2178,0.868 g diacid/g added feedstock
CCCCCCCCCCCC(=O)OCC [Ethyl Laurate],HFA,strain sAA1082; [5],2.48 g/L
same,Lauric Acid,strain sAA1082; [5],2.00 g/L
same,Productivity (g/L-h),strain sAA1082; [5],0.832 g/L-h
same,HFA,strain sAA1082; [6],1.64 g/L
same,Lauric Acid,strain sAA1082; [6],0.71 g/L
same,Productivity (g/L-h),strain sAA1082; [6],0.879 g/L-h
same,improvement in productivity over the methyl laurate fermentation with similar co-feed rate,strain sAA1082; higher dextrose feed,about 6%
OC[C@H]1O[C@@](CO)(O[C@H]2O[C@H](CO)[C@@H](O)[C@H](O)[C@H]2O)[C@@H](O)[C@@H]1O [sucrose],lauric acid accumulated,strain sAA2178 [2],1.56 g/L
same,"production of DDDA, less than with dextrose",strain sAA2178 [2],about 3%
same,production of DDDA,strain sAA2178 [2],0.847 g/L-h
O=C(O)CCCCCCCCC(=O)O [Sebacic Acid],Diacid composition (fraction of total diacids),[3]; pH 4.5,0.00
same,Diacid composition (fraction of total diacids),[3]; pH 6.0,0.10
same,Diacid composition (fraction of total diacids),[3]; pH 7.5,0.17
CCCCCCCCCCCC(=O)OC [Methyl Laurate],HFA,strain sAA1082; [5],3.31 g/L
same,Lauric Acid,strain sAA1082; [5],8.36 g/L
same,Productivity (g/L-h),strain sAA1082; [5],0.638 g/L-h
same,HFA,strain sAA1082; [6],3.83 g/L
same,Lauric Acid,strain sAA1082; [6],3.88 g/L
same,Productivity (g/L-h),strain sAA1082; [6],0.832 g/L-h
CCCCCCCCCCCCCCC [n-pentadecane],Feedstock Yield (g diacid/g added feedstock) ATTC-20962,[1],0.505 g diacid/g added feedstock
same,% improvement over ATTC 20962 sAA-1082,sAA1082,33.1%
same,Feedstock Yield (g diacid/g added feedstock) sAA-1082,sAA1082,0.673 g diacid/g added feedstock
same,% improvement over ATTC 20962 sAA-2178,sAA2178,16.8%
same,Feedstock Yield (g diacid/g added feedstock) sAA-2178,sAA2178,0.590 g diacid/g added feedstock
O=C(O)CCCCCCC(=O)O [Suberic Acid],Diacid composition (fraction of total diacids),[3]; pH 4.5,0.68
same,Diacid composition (fraction of total diacids),[3]; pH 6.0,0.75
same,Diacid composition (fraction of total diacids),[3]; pH 7.5,0.62
"O=C(O)CCCCCCCCCCC(=O)O [C12 Diacid, dodecanedioic acid]",Diacid composition (fraction of total diacids),[3]; pH 4.5,0.00
same,Diacid composition (fraction of total diacids),[3]; pH 6.0,0.03
same,Diacid composition (fraction of total diacids),[3]; pH 7.5,0.16
OCC(O)CO [glycerol],HFA levels,strain sAA2178 [4],0.33 g/L
same,lauric acid accumulated,strain sAA2178 [4],12.28 g/L
same,"production of DDDA, less than with dextrose",strain sAA2178 [4],about 60%
same,production of DDDA,strain sAA2178 [4],0.327 g/L-h
O=C[C@H](O)[C@@H](O)[C@H](O)[C@H](O)CO [dextrose],lauric acid accumulated,strain sAA2178 [2],0.52 g/L
same,production of DDDA,strain sAA2178 [2],0.872 g/L-h
same,HFA levels,strain sAA2178 [4],1.24 g/L
same,lauric acid accumulated,strain sAA2178 [4],0.37 g/L
same,production of DDDA,strain sAA2178 [4],0.825 g/L-h
CCCCCCCCCCCCCCCCC [n-heptadecane],Feedstock Yield (g diacid/g added feedstock) ATTC-20962,[1],0.473 g diacid/g added feedstock
same,% improvement over ATTC 20962 sAA-1082,sAA1082,17.3%
same,Feedstock Yield (g diacid/g added feedstock) sAA-1082,sAA1082,0.555 g diacid/g added feedstock
same,% improvement over ATTC 20962 sAA-2178,sAA2178,8.6%
same,Feedstock Yield (g diacid/g added feedstock) sAA-2178,sAA2178,0.514 g diacid/g added feedstock
CCCCCCCCCCCCCC(=O)OCC [Ethyl tetradecanoate],Feedstock Yield (g diacid/g added feedstock) ATTC-20962,[1],0.347 g diacid/g added feedstock
same,% improvement over ATTC 20962 sAA-1082,sAA1082,16.5%
same,Feedstock Yield (g diacid/g added feedstock) sAA-1082,sAA1082,0.404 g diacid/g added feedstock
same,% improvement over ATTC 20962 sAA-2178,sAA2178,28.1%
same,Feedstock Yield (g diacid/g added feedstock) sAA-2178,sAA2178,0.444 g diacid/g added feedstock
CCCCCCCCCCCCCCCCCC(=O)OCC [Ethyl stearate],Feedstock Yield (g diacid/g added feedstock) ATTC-20962,[1],0.074 g diacid/g added feedstock
same,% improvement over ATTC 20962 sAA-1082,sAA1082,14.5%
same,Feedstock Yield (g diacid/g added feedstock) sAA-1082,sAA1082,0.085 g diacid/g added feedstock
same,% improvement over ATTC 20962 sAA-2178,sAA2178,92.7%
same,Feedstock Yield (g diacid/g added feedstock) sAA-2178,sAA2178,0.143 g diacid/g added feedstock
CCCCCCCCCCC [n-Undecane],Feedstock Yield (g diacid/g added feedstock) ATTC-20962,[1],0.312 g diacid/g added feedstock
same,% improvement over ATTC 20962 sAA-1082,sAA1082,23.7%
same,Feedstock Yield (g diacid/g added feedstock) sAA-1082,sAA1082,0.386 g diacid/g added feedstock
same,% improvement over ATTC 20962 sAA-2178,sAA2178,29.3%
same,Feedstock Yield (g diacid/g added feedstock) sAA-2178,sAA2178,0.403 g diacid/g added feedstock
O=C[C@H](O)[C@@H](O)[C@H](O)CO [xylose],HFA levels,strain sAA2178 [4],0.20 g/L
same,lauric acid accumulated,strain sAA2178 [4],19.04 g/L
same,"production of DDDA, less than with dextrose",strain sAA2178 [4],about 75%
same,production of DDDA,strain sAA2178 [4],0.211 g/L-h
O=C(O)CCCCC(=O)O [Adipic Acid],Diacid composition (fraction of total diacids),[3]; pH 4.5,0.32
same,Diacid composition (fraction of total diacids),[3]; pH 6.0,0.12
same,Diacid composition (fraction of total diacids),[3]; pH 7.5,0.05
